These are literature values, as cited in PubChem BioAssay AID1259409 (Chemical Carcinogenesis Research Information System (CCRIS), 2018).

In the series the test system is rodent chemically induced tumor inhibition, incidence and multiplicity. The series can be described thus: CCRIS tumor inhibitor studies. The following applies: Species: MOUSE.

With `CC(C)Cn1c(=O)n(C)c(=O)c2[nH]cnc21`, the “tumour outcome (control, treated, inhibition, significance)” value was 35%, 19%, 46%, not calculated (Carcinogen: 7,12-DIMETHYLBENZ[A]ANTHRACENE, 57-97-6, Dose [Inhibitor]: 5 UMOL 2/WK FOR 48 WK APPLIED AT LEAST 5 MIN BEFORE AND TO SAME AREA OF SKIN AS EACH PROMOTER DOSE, STARTING 2 WK AFTER, Route [Inhibitor]: DERMAL, Strain/Sex: CD-1/FEMALE, Target Tissue: Type of Lesion: SKIN: CARCINOMA, Dose [Carcinogen]: 0.1 UMOL ONCE 2 WK PRIOR TO FIRST DOSE OF INHIBITOR, Promoter: 12-O-TETRADECANOYLPHORBOL-13-ACETATE;16561-29-8); 100%, 82%, 18%, not calculated (Carcinogen: 7,12-DIMETHYLBENZ[A]ANTHRACENE, 57-97-6, Dose [Inhibitor]: 5 UMOL 2/WK FOR 48 WK APPLIED AT LEAST 5 MIN BEFORE AND TO SAME AREA OF SKIN AS EACH PROMOTER DOSE, STARTING 2 WK AFTER, Route [Inhibitor]: DERMAL, Strain/Sex: CD-1/FEMALE, Target Tissue: Type of Lesion: SKIN: PAPILLOMA, Dose [Carcinogen]: 0.1 UMOL ONCE 2 WK PRIOR TO FIRST DOSE OF INHIBITOR, Promoter: 12-O-TETRADECANOYLPHORBOL-13-ACETATE;16561-29-8); 35%, 19%, 46%, not calculated (Carcinogen: 7,12-DIMETHYLBENZ[A]ANTHRACENE, 57-97-6, Dose [Inhibitor]: 5 UMOL APPLIED 2/WK THROUGHOUT THE STUDY AT LEAST 5 MIN BEFORE AND TO SAME AREA OF SKIN AS EACH DOSE OF PROMOTER STARTIN, Route [Inhibitor]: DERMAL, Strain/Sex: CD-1/FEMALE, Target Tissue: Type of Lesion: SKIN: CARCINOMA, Dose [Carcinogen]: 0.1 UMOL APPLIED ONCE, Promoter: 12-O-TETRADECANOYLPHORBOL-13-ACETATE, 16561-29-8); 100%, 82%, 18%, not calculated (Carcinogen: 7,12-DIMETHYLBENZ[A]ANTHRACENE, 57-97-6, Dose [Inhibitor]: 5 UMOL APPLIED 2/WK THROUGHOUT THE STUDY AT LEAST 5 MIN BEFORE AND TO SAME AREA OF SKIN AS EACH DOSE OF PROMOTER STARTIN, Route [Inhibitor]: DERMAL, Strain/Sex: CD-1/FEMALE, Target Tissue: Type of Lesion: SKIN: PAPILLOMA, Dose [Carcinogen]: 0.1 UMOL APPLIED ONCE, Promoter: 12-O-TETRADECANOYLPHORBOL-13-ACETATE, 16561-29-8); 59%, 42%, 29%, not significant (Carcinogen: 7,12-DIMETHYLBENZ[A]ANTHRACENE, 57-97-6, Dose [Inhibitor]: 10 UMOL 1/WK FOR 30 WK APPLIED AT LEAST 5 MIN PRIOR TO EACH CARCINOGEN TREATMENT (STUDY DURATION: 30 WK), Route [Inhibitor]: DERMAL, Strain/Sex: CD-1/FEMALE, Target Tissue: Type of Lesion: SKIN: CARCINOMA, Dose [Carcinogen]: 0.2 UMOL 1/WK FOR 30 WK, Promoter: NONE USED); 100%, 100%, 0%, not significant (Carcinogen: 7,12-DIMETHYLBENZ[A]ANTHRACENE, 57-97-6, Dose [Inhibitor]: 10 UMOL 1/WK FOR 30 WK APPLIED AT LEAST 5 MIN PRIOR TO EACH CARCINOGEN TREATMENT (STUDY DURATION: 30 WK), Route [Inhibitor]: DERMAL, Strain/Sex: CD-1/FEMALE, Target Tissue: Type of Lesion: SKIN: PAPILLOMA, Dose [Carcinogen]: 0.2 UMOL ONCE 1/WK FOR 30 WK, Promoter: NONE USED). Further, the “tumour outcome (control, treated, inhibition, significance)” value is 59%, 42%, 29%, not significant (Carcinogen: 7,12-DIMETHYLBENZ[A]ANTHRACENE, 57-97-6, Dose [Inhibitor]: 10 UMOL APPLIED 1/WK THROUGHOUT THE STUDY AT LEAST 5 MIN BEFORE AND TO SAME AREA OF SKIN AS EACH APPLICATION OF CARCINOG, Route [Inhibitor]: DERMAL, Strain/Sex: CD-1/FEMALE, Target Tissue: Type of Lesion: SKIN: CARCINOMA, Dose [Carcinogen]: 0.2 UMOL 1/WK FOR 30 WK, Promoter: NONE USED) and 100%, 100%, 0%, not significant (Carcinogen: 7,12-DIMETHYLBENZ[A]ANTHRACENE, 57-97-6, Dose [Inhibitor]: 10 UMOL APPLIED 1/WK THROUGHOUT THE STUDY AT LEAST 5 MIN BEFORE AND TO SAME AREA OF SKIN AS EACH APPLICATION OF CARCINOG, Route [Inhibitor]: DERMAL, Strain/Sex: CD-1/FEMALE, Target Tissue: Type of Lesion: SKIN: PAPILLOMA, Dose [Carcinogen]: 0.2 UMOL 1/WK FOR 30 WK, Promoter: NONE USED). For the setting “Carcinogen: 7,12-DIMETHYLBENZ[A]ANTHRACENE, 57-97-6, Dose [Inhibitor]: 10 UMOL APPLIED ONCE AT LEAST 5 MIN PRIOR TO CARCINOGEN DOSE (STUDY DURATION: 34 WK), Route [Inhibitor]: DERMAL, Strain/Sex: CD-1/FEMALE, Target Tissue: Type of Lesion: SKIN: CARCINOMA, Dose [Carcinogen]: 3.6 UMOL ONCE, Promoter: NONE USED”, the outcome is 0%, 4%, not calculated.
For `CC[C@H](C)C(=O)O[C@H]1C[C@@H](C)C=C2C=C[C@H](C)[C@H](CC[C@@H]3C[C@@H](O)CC(=O)O3)[C@H]21`, the “tumour outcome (control, treated, inhibition, significance)” value is 15/15 (100%), 15/15 (100%), 0%, not significant (Carcinogen: 4-(N-METHYL-N-NITROSAMINO)-1-(3-PYRIDYL)-1-BUTANONE, 64091-91-4, Dose [Inhibitor]: 0, 40 PPM IN THE DIET FOR 6 MO BEGINNING 1 WK POST CARCINOGEN DOSE (STUDY DURATION: 6 MO), Route [Inhibitor]: ORAL, Strain/Sex: STRAIN-A/MALE, Target Tissue: Type of Lesion: LUNG: TUMOR, Dose [Carcinogen]: 10 UMOL ONCE, Promoter: NONE USED); 15/15 (100%), 15/15 (100%), 0%, not significant (Carcinogen: 4-(N-METHYL-N-NITROSAMINO)-1-(3-PYRIDYL)-1-BUTANONE, 64091-91-4, Dose [Inhibitor]: 0, 160 PPM IN THE DIET FOR 6 MO BEGINNING 1 WK POST CARCINOGEN DOSE (STUDY DURATION: 6 MO), Route [Inhibitor]: ORAL, Strain/Sex: STRAIN-A/MALE, Target Tissue: Type of Lesion: LUNG: TUMOR, Dose [Carcinogen]: 10 UMOL ONCE, Promoter: NONE USED); 15/15 (100%), 12/14 (86%), 14%, not significant (Carcinogen: 4-(N-METHYL-N-NITROSAMINO)-1-(3-PYRIDYL)-1-BUTANONE, 64091-91-4, Dose [Inhibitor]: 0, 400 PPM IN THE DIET FOR 6 MO BEGINNING 1 WK POST CARCINOGEN DOSE (STUDY DURATION: 6 MO), Route [Inhibitor]: ORAL, Strain/Sex: STRAIN-A/MALE, Target Tissue: Type of Lesion: LUNG: TUMOR, Dose [Carcinogen]: 10 UMOL ONCE, Promoter: NONE USED).
Take `O=C1CCN(c2ccccc2)N1`: under “Carcinogen: 7,12-DIMETHYLBENZ[A]ANTHRACENE, 57-97-6, Dose [Inhibitor]: 30 UMOL APPLIED 30-40 MIN BEFORE EACH TPA TREATMENT AND CONCURRENTLY WITH TPA (STUDY DURATION: 18 WK), Route [Inhibitor]: DERMAL, Strain/Sex: CD-1/FEMALE, Target Tissue: Type of Lesion: SKIN: PAPILLOMA, Dose [Carcinogen]: 200 NMOL ONCE, Promoter: 12-O-TETRADECANOYLPHORBOL-13-ACETATE, 16561-29-8”, the “tumour outcome (control, treated, inhibition, significance)” value is reported as 96%, 100%, -4%, not calculated.
